Measurements: article PMC7236056 (ACS Medicinal Chemistry Letters, 2020)

Experiments:
[1] = molecular target: T1, hPPARα (Homo sapiens, UniProt Q07869); assay: GAL-4 PPAR transactivation assay, agonist activity; settings: 1, 2.5 and 5 μM; HepG2
T1 sequence (Q07869 239-466 limits assumed): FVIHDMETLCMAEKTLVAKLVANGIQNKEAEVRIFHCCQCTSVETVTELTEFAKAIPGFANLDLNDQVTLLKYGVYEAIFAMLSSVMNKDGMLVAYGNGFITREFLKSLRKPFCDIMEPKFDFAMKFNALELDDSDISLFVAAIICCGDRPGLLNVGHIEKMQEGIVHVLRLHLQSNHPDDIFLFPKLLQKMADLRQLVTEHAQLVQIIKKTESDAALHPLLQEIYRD

[2] = molecular target: T2, hPPARγ (Homo sapiens, UniProt P37231); assay: GAL-4 PPAR transactivation assay, agonist activity; settings: 1, 2.5 and 5 μM; HepG2; data not shown
T2 sequence (P37231 238-503 limits assumed): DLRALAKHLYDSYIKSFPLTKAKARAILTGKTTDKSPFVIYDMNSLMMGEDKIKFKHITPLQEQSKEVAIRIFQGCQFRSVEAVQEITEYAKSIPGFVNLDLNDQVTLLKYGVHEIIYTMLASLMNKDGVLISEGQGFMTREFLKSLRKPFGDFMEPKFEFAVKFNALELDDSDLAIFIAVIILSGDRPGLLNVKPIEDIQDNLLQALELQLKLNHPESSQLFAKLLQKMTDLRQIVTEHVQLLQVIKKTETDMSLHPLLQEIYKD

[3] = system: colorectal cancer cell lines (HT-29, SW480); assay: MTT cell viability, colorectal cancer cell lines; assay type: cell-based; settings: Homo sapiens, 72 h, read-out: inhibition rate in the colon cancer cell lines
[4] = system: paraganglioma (PGL) cell lines (PTJ64i, PTJ86i); assay: MTT cell viability, paraganglioma cell lines; assay type: cell-based; settings: Homo sapiens, 72 h, read-out: inhibition rate in the PGL cell lines
[5] = system: eight human cancer cell lines (AsPC-1, BxPC-3, Capan-2, HT-29, SW480, PTJ64i, PTJ86i, A498); assay: MTT cell viability, eight human cancer cell lines, single concentration; assay type: cell-based; settings: 75 μM, 72 h
[6] = system: CPT1A; assay: Expression of PPARα target gene CPT1A by RTqPCR; assay type: cell-based, human; settings: HepG2, 48 h; test compounds 0.5 µM, GW7647 2 µM

CC(C)(Oc1ccc(CCOc2ccc(/N=N/c3ccccc3)cc2)cc1)C(=O)NS(=O)(=O)c1ccccc1 [2b]
agonist activity on PPARα [1]: no detectable PPARα/γ activity
agonist activity on PPARγ [2]: no detectable PPARα/γ activity

CC(C)(Oc1ccc(CCOc2ccc(/N=N/c3ccccc3)cc2)cc1)C(=O)NS(=O)(=O)c1ccc(Cl)cc1 [3c]
inhibition at 75 µM [3]: 52 to 98%
inhibition at 75 µM [4]: 84 to 98%

CC(C)(Oc1ccc(CCOc2ccc(/N=N/c3ccccc3)cc2)cc1)C(=O)NS(=O)(=O)c1ccc([N+](=O)[O-])cc1 [3d]
inhibition at 75 µM [3]: 52 to 98%
inhibition at 75 µM [4]: 84 to 98%

CC(C)(Oc1ccc(CCOc2ccc(NC(=O)c3ccccc3)cc2)cc1)C(=O)NS(=O)(=O)c1ccccc1 [10e]
inhibition at 75 µM [3]: 52 to 98%
inhibition at 75 µM [4]: 84 to 98%

CCC(=O)NC[C@H](Cc1ccc(OCCc2nc(-c3ccccc3)oc2C)cc1)N/C(C)=C\C(=O)c1ccc(C(F)(F)F)cc1 [GW6471, reference compound]
effect on cell viability across the tumor cell lines tested [5]: showed antiproliferative activities
inhibition at 75 µM [4]: 85 to 92%

CC(C)(Sc1ccc(CCN(CCCCC2CCCCC2)C(=O)NC2CCCCC2)cc1)C(=O)O [GW7647]
CPT1A mRNA expression, compound alone [6]: robustly stimulated CPT1A expression

Cc1cccc(Nc2cc(Cl)nc(SCC(=O)O)n2)c1C [Wy-14,643]
effect on cell viability across the tumor cell lines tested [5]: did not affect cell viability
